Measurements reported in the supplement of paper PMC11997997.

Assays:
[1] = test system: Mycobacterium tuberculosis CDC1551 (intracellular, in murine BMDM); assay: area under intracellular growth-inhibition dose-response curve (AUC (% inhibition x dose, relative)); higher = more potent; conditions: duration: 6 days; dose range: 0.13-80 uM, 8 points
Outline: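 The value is the area under the growth-inhibition dose–response curve, calculated in GraphPad Prism. Primary murine bone marrow-derived macrophages were seeded in 384-well opaque plates and, 24 h later, infected for 1 h with luciferase-expressing M. tuberculosis CDC1551 at multiplicity of infection 1. Cells were then exposed for 6 days to an 8-dose, 2.5-fold series (final 80–0.13 μM). Growth was read with the Bright-Glo luciferin assay and normalised to a reference drug control and to the lowest-concentration wells.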

[2] = test system: murine bone marrow-derived macrophages; assay: area under cytotoxicity dose-response curve (AUC (% cytotoxicity x dose, relative)); higher = more cytotoxic; conditions: duration: 6 days; dose range: 0.13-80 uM, 8 points
Outline: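 Values are the area under the cytotoxicity dose–response curve, calculated with GraphPad Prism version 10. Primary murine bone marrow-derived macrophages were exposed to final concentrations of 80–0.13 μM for 6 days, and viability was read by CellTiter-Glo luminescence with normalisation to vehicle and positive control wells.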

Row | Compound | area under intracellular growth-inhibition dose-response curve [1] | area under cytotoxicity dose-response curve [2]
1 | CC(C)c1ccc(NC(=S)Nc2ccc3c[nH]nc3c2)cc1 | 271 | < 0
2 | CCOC(=O)C1=C(COC(=O)c2ccc(OC)c(S(=O)(=O)N3CCOCC3)c2)NC(=O)NC1C (centres undefined) | 56.9 | 65.5
3 | O=C(c1ccc([N+](=O)[O-])o1)N1CCN(c2nc3ccc(F)cc3s2)CC1 | 22.9 | 12.7
4 | Cc1sc(N/N=C/C=C/c2ccccc2)nc1-c1ccccc1 | 268 | 16.1
5 | CCN1/C(=C\c2ccc3ccccc3[n+]2CC)Sc2cc(C)ccc21.[I-] | 117 | 175
6 | Cc1ccc2nc(-c3ccc(NC(=S)NC(=O)C(C)C)cc3)sc2c1 | 174 | 32.6
7 | O=C(C=Cc1ccccc1)N1CCCCC1 | 119 | 46.5
8 | COc1cc(CNC23CC4CC(CC(C4)C2)C3)ccc1OCc1ccccc1.Cl | 143 | 89.1
9 | NS(=O)(=O)c1ccc(NC(=S)Nc2ccc(OCc3ccccc3)cc2)cc1 | 244 | < 0
10 | CC(=O)Nc1sc(N/N=C/c2ccc(N(C)C)cc2)nc1-c1ccc(C)cc1 | 263 | 6.8
11 | O=C(NCc1ccccc1)c1cc2ccccc2o1 | 197 | 71.7
12 | Cc1cc2oc(=O)cc(-c3ccccc3)c2c(C)c1-c1ccc(C#N)cc1 | 272 | 110
13 | Cc1ccc(C(=O)NC2CCCCCC2)o1 | 263 | < 0
14 | O.Sc1[nH]cnc2ncnc1-2 | 140 | < 0
15 | Fc1ccc(C2=CC(c3cccs3)n3nnnc3N2)cc1 (centres undefined) | 216 | < 0
16 | CSc1sccc1/C=N/NC(=O)c1ccncc1 | 249 | 15.4
17 | Cc1ccnc2c1ccc1c(C)ccnc12.O | 199 | 38.9
18 | O=C(NC1CCCCCC1)c1cccs1 | 243 | < 0
19 | Cc1ccc(-n2c(C)cc(/C=N/NC(=O)c3ccncc3)c2C)c(C)c1 | 268 | < 0
20 | O=C(CSc1nc2ccccc2nc1N1CCOCC1)N1CCN(c2ccccc2)CC1 | 199 | 22.9
21 | CCN(CC)CCN(C(=O)C1=COCCO1)c1nc2cc(C)cc(C)c2s1.Cl | 227 | 22.7

Row | Compound | area under intracellular growth-inhibition dose-response curve [1] | area under cytotoxicity dose-response curve [2]
22 | O=C(N/N=C/C=C/c1ccccc1[N+](=O)[O-])c1ccncc1 | 244 | 244
23 | C/C(=N\NC(N)=S)c1ccccc1 | 219 | 45.3
24 | COc1ccc(NC(=O)/C(Cl)=C(/Cl)S(=O)Cc2ccccc2Cl)cn1 (centres undefined) | < 0 | 140
25 | COc1ccc(CNC(=O)c2c(C)nc3ccccn23)cc1 | 268 | 8.66
26 | O=C(NCc1ccccc1Cl)c1ccc(Br)o1 | 120 | < 0
27 | O=C(CSc1nc(-c2ccccc2)ns1)N1CCOCC1 | 163 | 56.3
28 | O=C(NCC1CCCCC1)c1ccco1 | 251 | 106
29 | COc1ccccc1OCC(=O)N/N=C/C=C/c1ccc([N+](=O)[O-])o1 | 73.2 | < 0
30 | O=C(Sc1cccc2cccnc12)c1ccc(F)cc1 | 110 | 125
31 | Cc1ccc(C(=O)N2CCC(C)CC2)cc1C | 113 | 24.4
32 | COc1ccc(NC(=O)Cn2c(C)cc(=O)c3ccccc32)cc1 | 182 | < 0
33 | COc1cc(/C=N/NC(=O)c2ccncc2)ccc1O | 217 | 11.1
34 | COC(=O)c1sccc1NC(=O)c1c(F)c(F)c(F)c(F)c1F | 158 | 12.8
35 | CCn1cc(CNC(=O)c2cc([N+](=O)[O-])c(C)c([N+](=O)[O-])c2)cn1 | 226 | 16.8
36 | COc1ccc(NC(=O)CON=CC(=O)Nc2ccc(C)cc2)c(OC)c1 | 38.9 | 7
37 | O=C(COC(=O)CCCOc1ccc(Cl)cc1Cl)NCc1ccc(F)cc1 | 9.47 | 40.6
38 | COc1cccc(OCC(=O)NC2CCCCCC2)c1 | 266 | 22.4
39 | O=S(=O)(Nc1ccc(S(=O)(=O)Nc2nccs2)cc1)c1ccc2c(c1)OCCO2 | 77.8 | < 0
40 | Nc1ccc(S(=O)(=O)Nc2cnc3ccccc3n2)cc1 | 156 | < 0
41 | COc1ccccc1/C=C1\SC(=S)N(CCC(=O)Nc2ccc(C(=O)O)c(O)c2)C1=O | 124 | < 0
42 | CC1CCc2c(nc3sc4c(c3c2N)CCCC4)C1 (centres undefined) | 206 | 60.7

Row | Compound | area under intracellular growth-inhibition dose-response curve [1] | area under cytotoxicity dose-response curve [2]
43 | O=C(O)c1nc(O)nc(O)c1F | 174 | < 0
44 | O=C(NCCN1CCOCC1)c1cc([N+](=O)[O-])cc([N+](=O)[O-])c1 | 168 | 8.42
45 | Cc1cc2oc(=O)cc(-c3ccccc3)c2c(C)c1-c1ccc(CO)cc1 | 271 | < 0
46 | CCNC(=S)Nc1ccc(OCc2nc3ccccc3s2)cc1 | 273 | 35.3
47 | O=C(COc1ccccc1)NCc1ccccc1 | 163 | 14.8
48 | Cc1oc(-c2cccs2)nc1CSCC(=O)N1CCC2(CC1)OCCO2 | 48.9 | 37.4
49 | Cc1ccc(C[n+]2c(-c3ccc(C)cc3)cc(-c3ccc(C)cc3)cc2-c2ccc(C)cc2)cc1.[O-][Cl+3]([O-])([O-])[O-] | 253 | 59.3
50 | CC(=O)OCC1=C(C(=O)O)N2C(=O)C(NC(=O)Cn3nc(C(F)F)c(Cl)c3C)C2SC1 (centres undefined) | 195 | 2.26
51 | CCOc1ccc(/C=N/n2cc(-c3ccccc3)nc2S)cc1 | 265 | < 0
52 | O=[N+]([O-])c1cc(Cl)c(O)c(-[n+]2c(-c3ccccc3)cc(-c3ccccc3)cc2-c2ccccc2)c1.[O-][Cl+3]([O-])([O-])[O-] | 150 | 35.3
53 | O=C(Nc1ccc(N2CCN(Cc3ccccc3F)CC2)cc1)c1ccc([N+](=O)[O-])o1 | 186 | 5.12
54 | O=C(N/N=C/c1ccc(O)cc1)c1ccncc1 | 168 | 1.59
55 | N=c1c2c(-c3ccccc3)c(-c3ccccc3)n(Cc3ccccc3)c2ncn1CCCn1ccnc1 | 48.2 | 49.3
56 | CC1CCc2nc3sc4c(c3c(N)c2C1)CCCC4 (centres undefined) | 174 | 58.3
57 | CC(=O)O[C@H]1C[C@@]2(C)[C@@H](C[C@@H](O)[C@H]3[C@@]4(C)CC[C@@H](O)[C@@H](C)[C@@H]4CC[C@@]32C)/C1=C(\CCC=C(C)C)C(=O)[O-].[Na+] | 182 | 74.7
58 | NS(=O)(=O)c1ccc(CCNC(=S)Nc2ccccc2)cc1 | 221 | < 0
59 | COc1ccc(NC(=S)Nc2ccc(Oc3ccccc3)cc2)cc1 | 233 | < 0
60 | CCCc1cc(C(=O)NCc2cccs2)no1 | 192 | < 0
61 | C/C(CC(=O)Nc1cccc(C(F)(F)F)c1)=N\NC(=O)c1ccncc1 | 212 | < 0
62 | CCOc1ccccc1OCCCC(=O)Nc1cccc(S(=O)(=O)N2CCOCC2)c1 | 74 | 99
